SMILES strings stand for the structures.

Assay type in all cases: cell-based
Experiment [1] addresses BaF3 cell lines stably transfected with kinase EGFR Del/T790M (Homo sapiens, UniProt P00533, T790M, cells depend on it, form not given). As to the kind of experiment: Growth inhibition of BaF3 cell line stably transfected with kinase EGFR Del/T790M (MTS). Conditions: 48 h, read-out: growth inhibitory activity IC50, Del/T790M. The procedure:
(§1) Biological Activity Assay: Growth Inhibitory Activity of Compounds on Cell Lines Stably Transfected with Kinase
(§2) The activity of compounds against various mutants of kinase EGFR was evaluated by their effect of inhibiting growth of BaF3 cell lines stably transfected with kinase. The specific test method was given as follows:
(§3) 1) Culture medium: DMEM (Dulbecco's modified eagle medium) or RPMI 1640 (containing 10% fetal bovine serum, 100 μg/mL ampicillin, 100 μg/mL streptomycin).
(§4) 2) Reagent: MTS reaction solution (containing 2 mg/mL of MTS [3-(4,5-di methylthiazol-2-yl)-5-(3-carboxymethoxyphenyl)-2-(4-sulfophenyl)-2H-tetrazolium, inner Salt]; 100 μg/mL of PES (phenazine […])).
(§5) 3) Compound test: cells were incubated into a 96-well culture plate, the volume of cytosol was 90 μL, and then 10 μL of the compound at each gradient concentration was added. That is, the highest concentration was 10 μM, which was diluted stepwise by ⅓, and 8 concentration points were set in total; 0.1% DMSO (dimethyl sulfoxide) was contained in the system. The cell plate with uniformly mixed compound was cultured in a cell culture incubator (37° C.; 5% […]) for 48 h, then 20 μL of MTS reaction solution was added, uniformly mixed and incubated in the cell culture incubator (37° C.; 5% CO2) for 1-4 h; OD values at 490 nm were measured by a microplate reader (VARIOSKAN FLASH, Thermo). Two parallels were set in each group of experiments, with 0.1% (a final concentration) DMSO as a negative control, and a culture medium without cells and compounds as a blank control. The cell growth inhibition rate was calculated by the following formula: Cell growth inhibition rate %=1−(ODexperimental group−ODblank group)/(ODnegative group−ODblank group)×100%.
(§6) 4) IC50 calculation: The semi-inhibitory concentration of the compounds acting on cells was calculated using GradPad Prism 5 software according to the measured cell growth inhibition rate.

In experiment [2] the target is BaF3 cell lines stably transfected with kinase EGFR Del (Homo sapiens, UniProt P00533, cells depend on it, form not given). In words: Growth inhibition of BaF3 cell line stably transfected with kinase EGFR Del (MTS). Conditions: 48 h, read-out: growth inhibitory activity IC50, Del. The procedure: as §1, §2, §3, §4, §5, §6
Chain of BaF3 cell lines stably transfected with kinase EGFR Del (P00533 with tags, fused parts or gaps DEL746-750): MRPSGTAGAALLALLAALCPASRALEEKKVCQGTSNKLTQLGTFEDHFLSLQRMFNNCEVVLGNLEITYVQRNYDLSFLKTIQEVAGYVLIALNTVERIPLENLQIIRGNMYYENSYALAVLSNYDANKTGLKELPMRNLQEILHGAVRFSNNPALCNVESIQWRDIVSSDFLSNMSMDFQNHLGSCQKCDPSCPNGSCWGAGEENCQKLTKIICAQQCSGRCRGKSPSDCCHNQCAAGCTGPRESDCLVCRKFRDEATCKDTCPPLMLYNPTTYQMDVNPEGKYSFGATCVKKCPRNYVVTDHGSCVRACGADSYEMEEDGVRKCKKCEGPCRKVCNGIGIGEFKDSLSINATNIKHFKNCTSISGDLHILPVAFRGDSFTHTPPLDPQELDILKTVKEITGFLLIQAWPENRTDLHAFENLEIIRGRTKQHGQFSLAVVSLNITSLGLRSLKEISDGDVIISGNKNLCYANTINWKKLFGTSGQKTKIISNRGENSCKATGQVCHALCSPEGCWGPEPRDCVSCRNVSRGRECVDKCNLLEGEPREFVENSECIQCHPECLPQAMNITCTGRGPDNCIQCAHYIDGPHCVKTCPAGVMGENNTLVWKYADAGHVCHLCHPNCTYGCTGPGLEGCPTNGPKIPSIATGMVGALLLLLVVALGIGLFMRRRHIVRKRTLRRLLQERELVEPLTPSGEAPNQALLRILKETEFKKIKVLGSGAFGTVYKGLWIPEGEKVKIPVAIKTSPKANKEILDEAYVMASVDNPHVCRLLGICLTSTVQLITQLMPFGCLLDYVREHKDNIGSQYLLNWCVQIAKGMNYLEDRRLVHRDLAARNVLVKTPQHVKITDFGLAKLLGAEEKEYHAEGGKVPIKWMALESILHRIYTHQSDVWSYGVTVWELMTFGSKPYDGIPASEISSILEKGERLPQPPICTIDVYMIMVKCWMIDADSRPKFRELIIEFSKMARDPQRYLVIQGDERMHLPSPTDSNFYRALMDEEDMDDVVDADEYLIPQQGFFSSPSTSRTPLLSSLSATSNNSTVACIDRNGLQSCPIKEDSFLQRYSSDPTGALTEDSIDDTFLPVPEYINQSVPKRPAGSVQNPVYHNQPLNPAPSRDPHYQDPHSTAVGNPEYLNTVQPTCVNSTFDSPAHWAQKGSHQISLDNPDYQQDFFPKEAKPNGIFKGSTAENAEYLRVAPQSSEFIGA
Experiment [3] has as its target BaF3 cell lines stably transfected with kinase EGFR L858R/T790M/C797S (Homo sapiens, UniProt P00533, T790M/C797S/L858R, cells depend on it). As to the kind of experiment: Growth inhibition of BaF3 cell line stably transfected with kinase EGFR L858R/T790M/C797S (MTS). The settings on record: 48 h, read-out: growth inhibitory activity IC50, L858R/T790M/C797S. As to the method: as §1, §2, §3, §4, §5, §6

Experiment [4] deals with BaF3 cell lines stably transfected with kinase EGFR Del/T790M/C797S (Homo sapiens, UniProt P00533, T790M/C797S, cells depend on it, form not given). In words: Growth inhibition of BaF3 cell line stably transfected with kinase EGFR Del/T790M/C797S (MTS). Conditions: 48 h, read-out: growth inhibitory activity IC50, Del/T790M/C797S. As to the method: as §1, §2, §3, §4, §5, §6

For experiment [5], the target named is BaF3 cell lines stably transfected with kinase EGFR L858R/T790M (Homo sapiens, UniProt P00533, T790M/L858R, cells depend on it). In words: Growth inhibition of BaF3 cell line stably transfected with kinase EGFR L858R/T790M (MTS). Conditions: 48 h, read-out: growth inhibitory activity IC50, L858R/T790M. The procedure:
as §1, §2, §3, §4, §5, §6

Experiment [6] addresses BaF3 cell lines stably transfected with kinase EGFR L858R (Homo sapiens, UniProt P00533, L858R, cells depend on it). As to the kind of experiment: Growth inhibition of BaF3 cell line stably transfected with kinase EGFR L858R (MTS). The settings on record: 48 h, read-out: growth inhibitory activity IC50, L858R. The procedure:
as §1, §2, §3, §4, §5, §6

Chain of BaF3 cell lines stably transfected with kinase EGFR Del/T790M (P00533 with tags, fused parts or gaps DEL746-750/T790M, form open): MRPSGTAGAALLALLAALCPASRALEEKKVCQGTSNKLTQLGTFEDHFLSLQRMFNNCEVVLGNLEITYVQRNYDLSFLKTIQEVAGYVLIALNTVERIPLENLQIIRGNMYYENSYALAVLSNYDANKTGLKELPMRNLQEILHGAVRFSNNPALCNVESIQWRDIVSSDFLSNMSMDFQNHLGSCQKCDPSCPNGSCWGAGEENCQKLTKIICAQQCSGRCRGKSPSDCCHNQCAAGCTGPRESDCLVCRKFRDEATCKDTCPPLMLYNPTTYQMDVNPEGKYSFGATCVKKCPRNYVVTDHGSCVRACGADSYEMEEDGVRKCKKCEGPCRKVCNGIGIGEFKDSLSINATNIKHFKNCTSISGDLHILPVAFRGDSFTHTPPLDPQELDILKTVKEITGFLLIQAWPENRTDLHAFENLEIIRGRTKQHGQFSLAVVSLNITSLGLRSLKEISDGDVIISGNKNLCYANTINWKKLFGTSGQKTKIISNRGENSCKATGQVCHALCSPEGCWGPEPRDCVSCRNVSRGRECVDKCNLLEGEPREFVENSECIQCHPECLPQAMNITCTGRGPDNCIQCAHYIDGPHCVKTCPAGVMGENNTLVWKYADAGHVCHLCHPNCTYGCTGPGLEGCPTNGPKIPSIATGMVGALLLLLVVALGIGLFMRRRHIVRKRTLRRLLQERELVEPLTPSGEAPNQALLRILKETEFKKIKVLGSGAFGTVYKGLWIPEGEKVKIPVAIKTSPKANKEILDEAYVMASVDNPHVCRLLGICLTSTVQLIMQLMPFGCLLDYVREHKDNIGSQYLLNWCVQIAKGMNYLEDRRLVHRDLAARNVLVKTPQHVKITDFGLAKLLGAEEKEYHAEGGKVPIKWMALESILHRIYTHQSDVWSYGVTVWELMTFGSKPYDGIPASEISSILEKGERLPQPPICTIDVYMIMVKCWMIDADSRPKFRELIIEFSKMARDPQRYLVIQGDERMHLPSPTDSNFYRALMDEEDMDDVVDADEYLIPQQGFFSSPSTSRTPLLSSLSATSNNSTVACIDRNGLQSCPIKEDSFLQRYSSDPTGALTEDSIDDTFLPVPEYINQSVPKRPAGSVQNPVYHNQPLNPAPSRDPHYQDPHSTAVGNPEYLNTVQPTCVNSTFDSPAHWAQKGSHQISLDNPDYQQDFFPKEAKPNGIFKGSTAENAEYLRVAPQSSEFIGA
Chain of BaF3 cell lines stably transfected with kinase EGFR L858R/T790M (P00533 whole entry T790M/L858R): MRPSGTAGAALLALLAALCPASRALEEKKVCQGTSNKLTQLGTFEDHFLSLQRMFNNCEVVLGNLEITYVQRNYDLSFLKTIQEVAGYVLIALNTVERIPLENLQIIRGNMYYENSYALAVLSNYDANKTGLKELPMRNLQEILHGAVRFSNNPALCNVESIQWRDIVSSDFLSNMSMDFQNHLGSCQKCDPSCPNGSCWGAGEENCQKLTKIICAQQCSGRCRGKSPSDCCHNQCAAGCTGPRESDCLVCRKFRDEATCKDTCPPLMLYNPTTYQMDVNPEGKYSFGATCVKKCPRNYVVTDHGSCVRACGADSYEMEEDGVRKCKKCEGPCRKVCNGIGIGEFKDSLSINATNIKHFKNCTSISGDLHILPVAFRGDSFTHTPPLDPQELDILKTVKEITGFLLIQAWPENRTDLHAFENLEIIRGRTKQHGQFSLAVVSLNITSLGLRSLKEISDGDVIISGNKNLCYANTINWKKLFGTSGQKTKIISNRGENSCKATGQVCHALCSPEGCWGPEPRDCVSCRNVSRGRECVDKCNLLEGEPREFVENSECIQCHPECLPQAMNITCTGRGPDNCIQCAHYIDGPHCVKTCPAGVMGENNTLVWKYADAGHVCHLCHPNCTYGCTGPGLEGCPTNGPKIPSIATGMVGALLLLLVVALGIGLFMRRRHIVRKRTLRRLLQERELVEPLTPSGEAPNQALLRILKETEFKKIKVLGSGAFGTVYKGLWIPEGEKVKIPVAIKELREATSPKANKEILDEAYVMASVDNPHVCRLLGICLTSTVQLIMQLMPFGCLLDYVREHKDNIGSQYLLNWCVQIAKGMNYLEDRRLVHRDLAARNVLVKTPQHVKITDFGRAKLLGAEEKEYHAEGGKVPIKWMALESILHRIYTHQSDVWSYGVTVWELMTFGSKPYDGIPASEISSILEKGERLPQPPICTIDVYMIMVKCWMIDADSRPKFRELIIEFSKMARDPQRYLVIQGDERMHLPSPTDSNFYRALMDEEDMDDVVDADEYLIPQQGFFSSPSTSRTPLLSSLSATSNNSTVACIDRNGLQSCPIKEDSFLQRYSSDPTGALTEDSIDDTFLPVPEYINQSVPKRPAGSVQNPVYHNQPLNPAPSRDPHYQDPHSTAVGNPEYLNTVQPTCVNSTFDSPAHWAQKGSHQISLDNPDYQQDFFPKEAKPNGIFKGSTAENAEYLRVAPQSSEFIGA
Chain of BaF3 cell lines stably transfected with kinase EGFR L858R/T790M/C797S (P00533 whole entry T790M/C797S/L858R): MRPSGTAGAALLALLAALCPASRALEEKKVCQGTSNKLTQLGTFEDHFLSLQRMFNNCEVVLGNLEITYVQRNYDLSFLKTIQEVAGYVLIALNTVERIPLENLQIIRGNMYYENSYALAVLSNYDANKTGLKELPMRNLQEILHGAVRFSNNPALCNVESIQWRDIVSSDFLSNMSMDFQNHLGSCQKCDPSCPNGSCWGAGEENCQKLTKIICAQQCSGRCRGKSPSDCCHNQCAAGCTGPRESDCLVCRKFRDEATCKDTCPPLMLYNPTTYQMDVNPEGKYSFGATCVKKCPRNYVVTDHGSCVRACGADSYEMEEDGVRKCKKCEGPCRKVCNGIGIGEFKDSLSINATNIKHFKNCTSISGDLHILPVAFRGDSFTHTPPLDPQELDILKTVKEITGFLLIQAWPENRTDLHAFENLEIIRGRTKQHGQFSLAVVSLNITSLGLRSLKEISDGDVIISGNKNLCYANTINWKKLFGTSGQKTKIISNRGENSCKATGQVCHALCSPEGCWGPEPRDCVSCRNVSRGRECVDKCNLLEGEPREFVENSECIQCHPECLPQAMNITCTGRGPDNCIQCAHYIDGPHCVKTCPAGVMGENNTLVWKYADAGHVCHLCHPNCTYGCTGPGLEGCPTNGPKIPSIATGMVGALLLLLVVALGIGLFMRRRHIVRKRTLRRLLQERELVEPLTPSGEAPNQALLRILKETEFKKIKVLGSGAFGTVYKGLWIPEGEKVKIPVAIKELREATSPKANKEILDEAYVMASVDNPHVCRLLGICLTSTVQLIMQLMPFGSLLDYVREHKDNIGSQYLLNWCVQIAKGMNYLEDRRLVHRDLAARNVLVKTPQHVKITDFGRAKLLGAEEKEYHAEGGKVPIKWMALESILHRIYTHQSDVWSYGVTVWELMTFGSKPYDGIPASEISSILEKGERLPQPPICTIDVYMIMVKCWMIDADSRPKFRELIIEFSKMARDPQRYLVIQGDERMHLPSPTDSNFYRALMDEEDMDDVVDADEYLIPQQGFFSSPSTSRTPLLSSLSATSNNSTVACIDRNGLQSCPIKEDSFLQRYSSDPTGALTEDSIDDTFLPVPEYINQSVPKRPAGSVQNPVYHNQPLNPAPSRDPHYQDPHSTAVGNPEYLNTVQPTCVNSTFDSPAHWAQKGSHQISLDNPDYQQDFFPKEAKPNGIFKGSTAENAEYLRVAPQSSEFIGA

Regarding `C=Cc1cnc(Nc2cc(CC)c(N3CCC(N4CCN(C)CC4)CC3)cc2OC)nc1Nc1ccc2nccnc2c1N(C)S(C)(=O)=O` [II-1], the GI50 in experiment [1], in experiment [2], in experiment [3], in experiment [4], in experiment [5] and in experiment [6] was at most 50 nM in each case.

Consider `C=Cc1cnc(Nc2cc(CC)c(N3CCC(N(C)C)CC3)cc2OC)nc1Nc1ccc2nccnc2c1N(C)S(C)(=O)=O` [II-2], for which the GI50 in experiment [1], in experiment [2], in experiment [3], in experiment [4], in experiment [5] and in experiment [6] was at most 50 nM throughout.

Regarding `C=Cc1cnc(Nc2cc(CC)c(N3CCC(N(C)C)C3)cc2OC)nc1Nc1ccc2nccnc2c1N(C)S(C)(=O)=O` (stereo not drawn) [II-3], the GI50 in experiment [1], in experiment [2], in experiment [3], in experiment [4], in experiment [5] and in experiment [6] was at most 50 nM each time.

As for `C=Cc1cnc(Nc2cc(CC)c(N3CCN(C)CC3)cc2OC)nc1Nc1ccc2nccnc2c1N(C)S(C)(=O)=O` [II-4], the GI50 in experiment [1], in experiment [2], in experiment [3], in experiment [4], in experiment [5] and in experiment [6] was at most 50 nM in each case.

For `C=Cc1cnc(Nc2cc(CC)c(N3CCC(N4CCN(C)CC4)CC3)nc2OC)nc1Nc1ccc2nccnc2c1N(C)S(C)(=O)=O` [II-5], the GI50 in experiment [1] is at most 50 nM; in experiment [2], 50 to 500 nM; in experiment [3] it was 50 to 500 nM; in experiment [4], 50 to 500 nM; in experiment [5] it was at most 50 nM; in experiment [6], 50 to 500 nM.

`C=Cc1cnc(Nc2cc(CC)c(N3CCC(N4CCN(C)CC4)CC3)cc2OC(F)(F)F)nc1Nc1ccc2nccnc2c1N(C)S(C)(=O)=O` [II-6]: the GI50 in experiment [1] is at most 50 nM; in experiment [2] it was 50 to 500 nM; in experiment [3], 50 to 500 nM; in experiment [4] it was at most 50 nM; in experiment [5], 50 to 500 nM; in experiment [6], 50 to 500 nM.

As for `C=Cc1cnc(Nc2cc(CC3CC3)c(N3CCC(N4CCN(C)CC4)CC3)cc2OC)nc1Nc1ccc2nccnc2c1N(C)S(C)(=O)=O` [II-7], the GI50 in experiment [1], in experiment [2], in experiment [3], in experiment [4], in experiment [5] and in experiment [6] was at most 50 nM throughout.

On to `C=Cc1cnc(Nc2cc(CC)c(N3CCC(N4CCN(C)CC4)CC3)cc2OC)nc1Nc1ccc2nccnc2c1N(C)S(=O)(=O)C(F)(F)F` [II-8], for which the GI50 in experiment [1], in experiment [2], in experiment [3], in experiment [4], in experiment [5] and in experiment [6] was 50 to 500 nM in each case.

For the compound `C=Cc1cnc(Nc2cc(CC)c(N3CCC(N4CCN(C)CC4)CC3)cc2OC)nc1Nc1ccc2nccnc2c1N(C)S(=O)(=O)CC` [II-9], the GI50 in experiment [1] is at most 50 nM; in experiment [2] it was 50 to 500 nM; in experiment [3] it was at most 50 nM; in experiment [4], 50 to 500 nM; in experiment [5] it was 50 to 500 nM; in experiment [6], 50 to 500 nM.

In the case of `C=Cc1cnc(Nc2cc(CC)c(N3CCC(N4CCN(C)CC4)CC3)cc2OC)nc1Nc1ccc2nccnc2c1N(C)S(=O)(=O)C1CC1` [II-11], the GI50 was at most 50 nM in experiment [1]; at most 50 nM in experiment [2]; 50 to 500 nM in experiment [3]; 50 to 500 nM in experiment [4]; 50 to 500 nM in experiment [5]; 50 to 500 nM in experiment [6].

`C=Cc1cnc(Nc2cc(CC)c(N3CCC(N4CCN(C)CC4)CC3)cc2OC)nc1Nc1ccc2nccnc2c1N(CC)S(C)(=O)=O` [II-12]: the GI50 in experiment [1], in experiment [2], in experiment [3], in experiment [4], in experiment [5] and in experiment [6] was at most 50 nM throughout.

With `C=Cc1cnc(Nc2cc(CC)c(N3CCC(N4CCN(C)CC4)CC3)cc2OC)nc1Nc1ccc2nccnc2c1N(C1CC1)S(C)(=O)=O` [II-14], the GI50 is at most 50 nM in experiment [1]; at most 50 nM in experiment [2]; at most 50 nM in experiment [3]; 50 to 500 nM in experiment [4]; at most 50 nM in experiment [5]; at most 50 nM in experiment [6].

In the case of `C=Cc1cnc(Nc2cc(C)c(N3CCC(N4CCN(C)CC4)CC3)cc2OC)nc1Nc1ccc2nccnc2c1N(C)S(C)(=O)=O` [II-15], the GI50 in experiment [1], in experiment [2], in experiment [3], in experiment [4], in experiment [5] and in experiment [6] was at most 50 nM each time.

Take `C=Cc1cnc(Nc2ccc(N3CCC(N4CCN(C)CC4)CC3)cc2OC)nc1Nc1ccc2nccnc2c1N(C)S(C)(=O)=O` [II-16]: the GI50 was 50 to 500 nM in experiment [1]; 50 to 500 nM in experiment [2]; 50 to 500 nM in experiment [3]; 50 to 500 nM in experiment [4]; 500 to 2500 nM in experiment [5]; 500 to 2500 nM in experiment [6].

As to `C=Cc1cnc(Nc2cc(C(C)C)c(N3CCC(N4CCN(C)CC4)CC3)cc2OC)nc1Nc1ccc2nccnc2c1N(C)S(C)(=O)=O` [II-17], the GI50 in experiment [1] fell in the range of 50 to 500 nM; in experiment [2] it was 50 to 500 nM; in experiment [3], 50 to 500 nM; in experiment [4], 50 to 500 nM; in experiment [5] it was 50 to 500 nM; in experiment [6], 500 to 2500 nM.

On to `C=Cc1cnc(Nc2cc(C3CC3)c(N3CCC(N4CCN(C)CC4)CC3)cc2OC)nc1Nc1ccc2nccnc2c1N(C)S(C)(=O)=O` [II-18], for which the GI50 in experiment [1] is at most 50 nM; in experiment [2] it was 50 to 500 nM; in experiment [3], 50 to 500 nM; in experiment [4] it was 50 to 500 nM; in experiment [5], 50 to 500 nM; in experiment [6] it was 50 to 500 nM.

Regarding `C=Cc1cnc(Nc2cc(Cc3ccccc3)c(N3CCC(N4CCN(C)CC4)CC3)cc2OC)nc1Nc1ccc2nccnc2c1N(C)S(C)(=O)=O` [II-19], the GI50 in experiment [1] is 50 to 500 nM; in experiment [2], 500 to 2500 nM; in experiment [3], 50 to 500 nM; in experiment [4], at most 50 nM; in experiment [5] it was 500 to 2500 nM; in experiment [6], 500 to 2500 nM.

As to `C=Cc1cnc(Nc2ccc(N3CCC(N4CCN(C)CC4)CC3)c(CC)c2)nc1Nc1ccc2nccnc2c1N(C)S(C)(=O)=O` [II-20], the GI50 in experiment [1], in experiment [2], in experiment [3], in experiment [4], in experiment [5] and in experiment [6] was at most 50 nM each time.

Turning to `C=C(C)c1cnc(Nc2cc(CC)c(N3CCC(N4CCN(C)CC4)CC3)cc2OC)nc1Nc1ccc2nccnc2c1N(C)S(C)(=O)=O` [II-21], the GI50 in experiment [1], in experiment [2], in experiment [3], in experiment [4], in experiment [5] and in experiment [6] was at most 50 nM throughout.

As for `C=C(C)c1cnc(Nc2cc(C(C)C)c(N3CCC(N4CCN(C)CC4)CC3)cc2OC)nc1Nc1ccc2nccnc2c1N(C)S(C)(=O)=O` [II-22], the GI50 lay within 50 to 500 nM in experiment [1]; 50 to 500 nM in experiment [2]; 500 to 2500 nM in experiment [3]; 50 to 500 nM in experiment [4]; 50 to 500 nM in experiment [5]; 50 to 500 nM in experiment [6].

For `C=C(C)c1cnc(Nc2cc(C3CC3)c(N3CCC(N4CCN(C)CC4)CC3)cc2OC)nc1Nc1ccc2nccnc2c1N(C)S(C)(=O)=O` [II-23], the GI50 in experiment [1] is at most 50 nM; in experiment [2], at most 50 nM; in experiment [3], 50 to 500 nM; in experiment [4], 50 to 500 nM; in experiment [5] it was at most 50 nM; in experiment [6] it was at most 50 nM.
